# Source: patent US5873359A, “Methods and devices for treating pulmonary vasoconstriction and asthma” (The General Hospital Corporation, priority 1994, dated 1999)
# Columns and labels:
# [1] = system: severe acute respiratory failure; experiment: Inhaled NO in humans with severe acute respiratory failure (preliminary); assay type: in vivo, human; conditions: approximately 20 ppm inhaled, up to one month, five humans
# From the text: It is likely that inhaled NO acts by diffusing into the vascular space adjacent to the alveoli and causing relaxation of pulmonary vascular smooth muscle, thus permitting an increase in pulmonary blood flow and gas exchange. […] By localizing delivery of NO in a gaseous form directly to the lungs, the dissolved NO can immediately exert its pharmacological effect on target vascular smooth muscle, prior to inactivation of the NO by binding to hemoglobin. At the same time, the rapid binding of NO to hemoglobin ensures that any vasodilatory action of inhaled NO is solely a local or selective effect in the blood vessels of the lung, with no concomitant vasodilation downstream in the systemic circulation.
# [2] = system: heparin-protamine-induced elevated PAP and PVR; assay type: in vivo, sheep
# Description: The heparin-protamine reaction was induced in these nine sheep by first administering heparin (200 U/kg; Elkins-Sinn, Cherry Hill, N.J.) followed five minutes later (at time zero) by protamine (2 mg/kg; Elkins-Sinn). Each of these sheep also served as a control. Six additional sheep were given an intravenous infusion of sodium nitroprusside (40 μg/kg/min body weight; Elkins-Sinn) while breathing air (data not shown).
# [3] = system: methacholine bronchoconstriction; experiment: Tolerance to 1 hour of NO inhalation during methacholine infusion; assay type: in vivo, Hartley strain guinea pigs
# Description: Male Hartley strain guinea pigs (300-440g body wt) were anesthetized with α-chloralose (50 mg/kg) and urethane (500 mg/kg) (Drazen et al., J. Appl. Physiol. 48:613-618, 1980). A tracheostomy was performed, and the animals were intubated with a tubing adaptor (ID 1.65 mm) and ventilated with a small animal ventilator (Harvard Apparatus, a division of Ealing Scientific, Natick, Mass.) at 8 ml/kg and 60 breaths/min. A jugular vein was cannulated for intravenous administration of drugs. The chest was opened by bilateral excision of a portion of the ribs anteriorly so that the lungs were exposed to atmospheric pressure (Shore and Drazen, J. Appl. Physiol. 67:2504-2511, 1989). A positive end expiratory pressure of 3-4 cmH2 O was provided.
# Guinea pigs were then placed inside a plethysmograph (Amdur and Mead, Am. J. Physiol. 192:363-368, 1958), that was connected to a large reservoir containing copper mesh to maintain the plethysmograph isothermal. Plethysmograph pressure was measured with a differential pressure transducer (Celesco, Canoga Park, Calif.); the opposite side of this transducer was connected to a similar reservoir. Pressure at the airway opening was measured from a side tap in the tracheal canula. Transpulmonary pressure was measured with a differential pressure transducer (Celesco) as the difference between airway opening pressure and the pressure inside the plethysmograph. […] Tidal volume was measured by recording the pressure changes in the body plethysmograph. Volume, flow, and transpulmonary pressure signals were recorded on a strip chart (General Scanning, Watertown, Mass.). Pulmonary resistance and dynamic compliance were calculated by a computer program according to the method of von Neergard and Wirz (Z. Klin. Med. 105:35-50, 1927; Z. Klin. Med. 105:52-82, 1927).
# The apparatus and conditions used are diagrammed in FIG. 7. […] With volumetrically calibrated flowmeters, varying quantities of NO mixed with N2 were substituted for pure N2 to obtain the desired No concentration at an inspired oxygen concentration (FIO2) of 0.30-0.32. […]
smiles,measurement,setting,value
"[N]=O [NO, nitric oxide]",QVA /QT (right-to-left shunt),[1],reduces both pulmonary arterial pressure and QVA /QT
same,blood oxygen levels,[1],marked increase of the patients' blood oxygen levels
same,pulmonary arterial pressure,[1],reduces both pulmonary arterial pressure and QVA /QT
same,systemic hypotension,[2]; 180 ppm inhaled NO vs SNP,without the latter drug's propensity to cause marked systemic hypotension
same,lowering of heparin-protamine-induced PAP,[2]; 180 ppm inhaled NO vs SNP 40 μg/kg/min,comparable to 40 μg/kg/min SNP infusion
same,prevention of elevated PAP and PVR,"[2]; 180 ppm inhaled NO, nine awake sheep",prevent the elevated PAP and PVR
same,tolerance,"[3]; 100 ppm NO, one hour",no tolerance
same,airway resistance,"[3]; 100 ppm NO, one hour (FIG. 13)",effectively and stably reduced the airway resistance for one hour
same,methemoglobin levels,[3]; after one hour of breathing 100 ppm NO,below 5%
